Measured values: article PMC11762413 (2025)

Experiments:
[1] = test system: VAN-specific aptamer (Apt), 4trunc, in solution (DNA, aptamer) CGAGGGTACCGCAATAGTACTTATTGTTCGCCTATTGTGGGTCGG; assay: ITC; conditions: 100 mM Na+, 100 mM K+, 10 mM Mg2+; 10 mM TRIS pH 7.4, 25 °C; 10 µM aptamer titrated with 150 µM VAN; independent sites
[2] = test system: VAN-specific aptamer (Apt), 4trunc, immobilised on gold (DNA, aptamer) CGAGGGTACCGCAATAGTACTTATTGTTCGCCTATTGTGGGTCGG; assay: SPR kinetics (koff/kon); conditions: 100 mM Na+, 100 mM K+, 10 mM Mg2+; 10 mM TRIS pH 7.4; aptamer immobilised on gold chip; VAN 0.05–10 µM; 1:1 model
[3] = test system: VAN-specific aptamer (Apt), 4trunc, immobilised on gold (DNA, aptamer) CGAGGGTACCGCAATAGTACTTATTGTTCGCCTATTGTGGGTCGG; assay: EIS aptasensor selectivity; conditions: 100 mM Na+, 100 mM K+, 10 mM Mg2+, 10 mM TRIS pH 7.4, room temperature, 45 min, tested at 1 µM

CN[C@H](CC(C)C)C(=O)N[C@H]1C(=O)N[C@@H](CC(N)=O)C(=O)N[C@H]2C(=O)N[C@H]3C(=O)N[C@H](C(=O)N[C@H](C(=O)O)c4cc(O)cc(O)c4-c4cc3ccc4O)[C@H](O)c3ccc(c(Cl)c3)Oc3cc2cc(c3O[C@@H]2O[C@H](CO)[C@@H](O)[C@H](O)[C@H]2O[C@H]2C[C@](C)(N)[C@H](O)[C@H](C)O2)Oc2ccc(cc2Cl)[C@H]1O
KD [1]: 13.35 ± 2.74 µM
KD [2]: 18.31 ± 1.15 µM

OC[C@H]1OC(O)[C@H](O)[C@@H](O)[C@@H]1O (stereo partly shown)
binding ([3]; 10.65% of VAN signal): no

OC[C@H]1O[C@@H](O[C@H]2[C@H](O)[C@@H](O)C(O)O[C@@H]2CO)[C@H](O)[C@@H](O)[C@H]1O (stereo partly shown)
binding ([3]; 9.78% of VAN signal): no
